# Test results taken from ChEMBL document CHEMBL4346735, “Discovery and pharmacological evaluation of indole derivatives as potent and selective RORγt inverse agonist for multiple autoimmune conditions” (Bioorg Med Chem Lett, 2019).
# pIC50: −log10 of the molar value.
# Columns and labels:
# Mus musculus [1] = experiment: Inhibition of anti-CD3-induced IL-17A level in Balb/c mouse plasma at 5 mg/kg, po treated prior to stimulation with anti-CD3 for 3 hrs relative to control; format: functional
# [2] = molecular target: T1, Nuclear receptor ROR-gamma (Homo sapiens) (UniProt P51449); experiment: Transactivation of recombinant GAL4-DBD fused RORgammat LBD (unknown origin) expressed in HEK293T cells at 1 uM incubated for 18 to 24 hrs by dual-Glo luciferase assay relative to control; format: cell-based
# T1 sequence (whole entry): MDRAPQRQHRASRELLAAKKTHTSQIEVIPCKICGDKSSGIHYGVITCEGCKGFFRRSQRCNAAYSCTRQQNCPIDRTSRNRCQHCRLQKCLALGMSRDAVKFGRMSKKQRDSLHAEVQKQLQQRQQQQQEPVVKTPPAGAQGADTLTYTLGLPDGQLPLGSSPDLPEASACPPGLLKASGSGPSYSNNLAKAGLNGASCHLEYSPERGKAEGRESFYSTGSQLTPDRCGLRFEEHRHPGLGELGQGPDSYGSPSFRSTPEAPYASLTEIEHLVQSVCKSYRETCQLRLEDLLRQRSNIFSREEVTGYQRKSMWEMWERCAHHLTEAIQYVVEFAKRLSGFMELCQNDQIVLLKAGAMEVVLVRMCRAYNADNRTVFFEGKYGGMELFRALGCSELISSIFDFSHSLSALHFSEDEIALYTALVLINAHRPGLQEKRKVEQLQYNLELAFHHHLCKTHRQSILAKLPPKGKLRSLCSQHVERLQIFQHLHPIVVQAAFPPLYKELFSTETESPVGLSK
# [3] = Metabolic stability in mouse liver microsomes assessed as parent compound remaining at 1 uM preincubated for 5 mins followed by NADPH addition after 30 mins by LC-MS/MS analysis; format: ADME, Microsome; conditions: read-out: Stability
# Mus musculus [4] = experiment: Immunosuppressive activity in MOG (35 to 55 residues)/pertussis toxin-induced experimental allergic encephalomyelitis C57BL/6J mouse model assessed as reduction in disease severity score at 15 mg/kg, po bid measured at day 23 relative to dexamethasone; format: functional; conditions: 552 h
# [5] = molecular target: T2, Nuclear receptor ROR-gamma (Homo sapiens, UniProt P51449); experiment: Inverse agonist activity at GST-tagged RORgammat LBD (unknown origin) using fluorescein-D22 co-activator peptide as substrate incubated for 1 hr by TR-FRET assay
# T2 sequence (P51449 whole entry): T1 sequence (whole entry)
# [6] = molecular target: T2, Nuclear receptor ROR-gamma; experiment: Transactivation of recombinant GAL4-DBD fused RORgammat LBD (unknown origin) expressed in HEK293T cells incubated for 18 to 24 hrs by dual-Glo luciferase assay; format: cell-based
# [7] = Drug metabolism in mouse liver microsomes assessed as oxidation metabolic rate at 1 uM preincubated for 5 mins followed by NADPH addition after 30 mins by LC-MS/MS analysis; format: ADME, Microsome; conditions: 0.5 h
# [8] = Drug metabolism in rat liver microsomes assessed as oxidation metabolic rate at 1 uM preincubated for 5 mins followed by NADPH addition after 30 mins by LC-MS/MS analysis; format: ADME, Microsome; conditions: 0.5 h
# [9] = Drug metabolism in human pooled liver microsomes assessed as oxidation metabolic rate at 1 uM preincubated for 5 mins followed by NADPH addition after 30 mins by LC-MS/MS analysis; format: ADME, Microsome; conditions: 0.5 h
# [10] = AUC (0 to t) in Balb/c mouse at 3 mg/kg, iv administered as single dose by LC-MS/MS analysis; format: ADME, organism-based; conditions: in vivo
# [11] = Clearance in Balb/c mouse at 3 mg/kg, iv administered as single dose by LC-MS/MS analysis; format: ADME, organism-based; conditions: in vivo
# [12] = Half life in Balb/c mouse at 3 mg/kg, iv administered as single dose by LC-MS/MS analysis; format: ADME, organism-based; conditions: in vivo
# [13] = Oral bioavailability in Balb/c mouse at 10 mg/kg administered via gavage by LC-MS/MS analysis; format: ADME, organism-based; conditions: in vivo
# [14] = Metabolic stability in rat hepatocytes assessed as parent compound remaining after 30 mins; format: ADME, cell-based, Hepatocyte; conditions: read-out: Stability
# [15] = molecular target: T3, Nuclear receptor ROR-gamma (Mus musculus) (UniProt P51450); experiment: Transrepression of RORgammat in Balb/c mouse splenocytes assessed as inhibition of anti-CD3/anti-CD28 stimulated IL-17 gene expression at 0.3 uM measured after 24 hrs in presence of anti-CD3/anti-CD28; format: cell-based
# T3 sequence (whole entry): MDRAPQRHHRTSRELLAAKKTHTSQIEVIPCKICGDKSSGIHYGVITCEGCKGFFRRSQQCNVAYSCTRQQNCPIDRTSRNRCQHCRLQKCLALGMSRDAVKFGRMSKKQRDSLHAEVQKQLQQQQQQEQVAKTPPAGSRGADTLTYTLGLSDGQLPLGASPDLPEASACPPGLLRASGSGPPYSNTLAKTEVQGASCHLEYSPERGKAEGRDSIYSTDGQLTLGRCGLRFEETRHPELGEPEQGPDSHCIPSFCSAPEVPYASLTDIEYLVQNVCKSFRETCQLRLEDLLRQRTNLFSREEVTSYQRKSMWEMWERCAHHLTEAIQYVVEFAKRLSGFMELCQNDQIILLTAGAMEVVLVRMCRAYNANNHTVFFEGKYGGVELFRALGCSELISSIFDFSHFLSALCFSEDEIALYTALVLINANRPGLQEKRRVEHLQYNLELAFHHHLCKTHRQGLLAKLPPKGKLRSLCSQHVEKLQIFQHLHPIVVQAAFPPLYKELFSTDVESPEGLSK
# [16] = molecular target: T3, Nuclear receptor ROR-gamma (Mus musculus); experiment: Transrepression of RORgammat in Balb/c mouse splenocytes assessed as inhibition of anti-CD3/anti-CD28 stimulated IL-17 gene expression at 3 uM measured after 24 hrs in presence of anti-CD3/anti-CD28; format: cell-based
# [17] = molecular target: T3, Nuclear receptor ROR-gamma (Mus musculus); experiment: Transrepression of RORgammat in Balb/c mouse splenocytes assessed as inhibition of anti-CD3/anti-CD28 stimulated IL-17 gene expression at 30 uM measured after 24 hrs in presence of anti-CD3/anti-CD28; format: cell-based
# [18] = molecular target: T4, Nuclear receptor ROR-gamma (Mus musculus, UniProt P51450); experiment: Inverse agonist activity at RORgammat in mouse splenocytes derived naive T cells assessed as suppression of T cell differentiation to Th17 cells by measuring IL-17 secretion in presence of […]/anti-IFNgamma/TGFbeta/IL-6 for 6 days by ELISA; format: cell-based
# T4 sequence (P51450 whole entry): T3 sequence (whole entry)
SMILES,pIC50 [5],pIC50 [6],Drug metabolism [7] [nmol/min/mg],Drug metabolism [8] [nmol/min/mg],Drug metabolism [9] [nmol/min/mg],AUC(0-t) [10] [µM·h],clearance [11] [mL/min/kg],half-life [12] [h],bioavailability [13] [%],further results
C[C@@H]1C[C@H]2[C@@H]3CCC4=CC(=O)C=C[C@]4(C)[C@@]3(F)[C@@H](O)C[C@]2(C)[C@@]1(O)C(=O)CO [DEXAMETHASONE],–,–,–,–,–,–,–,–,–,inhibition in vivo at 5 mg/kg (Mus musculus [1]): 51%
O=C(O)c1ccc(-n2cc(C(=O)c3c(Cl)cccc3Cl)c3ccncc32)cc1,–,–,–,–,–,–,–,–,–,"inhibition [2]: 27%; remaining at 0.5 h, 1 µM [3]: 100%"
C[S+](C)[O-] [DIMETHYL SULFOXIDE],–,–,–,–,–,–,–,–,–,inhibition in vivo at 15 mg/kg (Mus musculus [4]): 15%

# The next lines start with results.
pIC50 [5],pIC50 [6],Drug metabolism [7] [nmol/min/mg],Drug metabolism [8] [nmol/min/mg],Drug metabolism [9] [nmol/min/mg],AUC(0-t) [10] [µM·h],clearance [11] [mL/min/kg],half-life [12] [h],bioavailability [13] [%],SMILES,further results
8.42,7.54,< 0.04,0.18,0.07,5.9,19.6,1.4,29,O=C(O)c1ccc(-n2nc(C(=O)c3c(Cl)cccc3Cl)c3ccccc32)cc1,remaining at 0.5 h [14]: 17%
8.70,7.70,< 0.04,0.19,0.04,13.2,12.9,1.12,42,O=C(O)c1ccc(-c2nn(C(=O)c3c(Cl)cccc3Cl)c3ccccc23)cc1,inhibition [15]: 15%; inhibition [16]: 48%; inhibition [17]: 52%; pIC50 [18]: 7.37
